Experimental data as given in patent publication US8962575B2, “Clerodane derivatives for modulation of leukotriene receptor activity and related diseases” (Biotropics Malaysia Berhad, priority 2011, dated 2015).

Target: T1, Human BLT2 Receptor (Homo sapiens, UniProt Q9NPC1)
T1 construct: host or cells: BLT2 HEK293T cells transiently transfected with chimeric G protein Gαqi5
T1 sequence (Q9NPC1 1-358): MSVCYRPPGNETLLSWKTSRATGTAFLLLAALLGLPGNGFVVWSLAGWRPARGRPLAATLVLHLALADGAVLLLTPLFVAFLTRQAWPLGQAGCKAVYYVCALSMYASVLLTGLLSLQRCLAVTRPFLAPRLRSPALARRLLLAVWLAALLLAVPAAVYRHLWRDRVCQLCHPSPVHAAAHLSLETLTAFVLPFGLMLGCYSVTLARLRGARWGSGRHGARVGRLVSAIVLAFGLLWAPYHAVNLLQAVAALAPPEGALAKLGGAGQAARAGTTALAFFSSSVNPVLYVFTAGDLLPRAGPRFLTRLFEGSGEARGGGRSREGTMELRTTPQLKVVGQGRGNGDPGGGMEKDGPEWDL
Test: Recombinant cell assay (calcium flux, antagonist mode, LTB4 pre-stimulation)
Format: cell-based
Conditions: pure compounds at 10 μM, 5 min pre-incubation; antagonist mode with LTB4; BLT2 HEK293T cells
Protocol: A) Recombinant Cell Assay (Human BLT2 Receptor)
The BLT2 assay conducted was a functional cell based assay, with transiently transfected HEK293T cells (Transfection: with chimeric G protein Gαqi5; Minami et al, “Analysis of the effects of halothane on Gi-coupled muscarinic M2 receptor signal” Pharmacology (2004) 72: 205-12). […] The test items were measured subsequently in the antagonist mode as described above in a concentration of 10 μM (pure compounds) or 15 μg/ml (extracts and/or mixtures).
This assay was performed by Multispan, Inc., Hayward (CA, USA) under the catalog no C1272, the assay principle is outlined by Yokomizo (J Exp Med (2000) 192:421-432).
• Cells: BLT2 HEK293T cells transiently transfected with chimeric G protein Gαqi5 • Compounds: Test compounds dissolved in DMSO at a concentration of 10 mM or 100 mg/mL.
Calcium assay: Cells were seeded in 384-well plates at appropriate densities and cultured overnight. Calcium assays were conducted according to the manufacturer's protocol using Molecular Devices FLIPR Calcium 4 Assay kit. Calcium 4 dye loading buffer was added to the cells and incubated for one hour at 37° C. The test compounds were pre-incubated for 5 minutes at a final concentration of 10 μM or 15 μg/mL, respectively. Calcium flux was measured for 90 seconds with the respective agonist compound injected into the wells at 19th second. Agonist was used at a concentration in which maximum reaction was observed.
Data analysis: Calcium assay results are expressed as “RFU” (Relative Fluorescence Units) and are shown in the following table as “remaining % RFU against DMOS) (meaning % Increase in RFU after correction for DMSO and baseline). Two-tailed Student's t-test was used for treatment comparisons and statistic significance was defined as p<0.05.

Structure (SMILES)	remaining % RFU against DMSO [%]
COC(=O)C1=CC(O)CC2C3(C)CC(c4ccoc4)OC(=O)C3CC(OC3OC(CO)C(O)C(O)C3O)C12C (stereo not drawn) [COI 4, methyl 2-(furan-3-yl)-9-hydroxy-6a,10b-dimethyl-4-oxo-6-(3,4,5-trihydroxy-6-(hydroxymethyl)tetrahydro-2H-pyran-2-yloxy)-2,4,4a,5,6,6a,9,10,10a,10b-decahydro-1H-benzo[f]isochromene-7-carboxylate]	78.6
COC(=O)C1=CCCC2C3(C)CC(c4ccoc4)OC(=O)C3CC(OC3OC(CO)C(OC4OC(CO)C(O)C(O)C4O)C(O)C3O)C12C (stereo not drawn) [COI 5, methyl 6-(3,4-dihydroxy-6-(hydroxymethyl)-5-(3,4,5-trihydroxy-6-(hydroxymethyl)tetrahydro-2H-pyran-2-yloxy)tetrahydro-2H-pyran-2-yloxy)-2-(furan-3-yl)-6a,10b-dimethyl-4-oxo-2,4,4a,5,6,6a,9,10,10a,10b-decahydro-1H-benzo[f]isochromene-7-carboxylate]	79.7
CC12CC(c3ccoc3)OC(=O)C1CC1OC(=O)C3(O)C(OC4OC(CO)C(O)C(O)C4O)CCC2C13C (stereo not drawn) [COI 7, 9-(furan-3-yl)-3a-hydroxy-3a1,10a-dimethyl-3-(3,4,5-trihydroxy-6-(hydroxymethyl)tetrahydro-2H-pyran-2-yloxy)decahydroisobenzofuro[7,1-fg]isochromene-4,7(3a1H,5aH)-dione]	83.2
